5 compounds from patent publication US10239870B2, “Dopamine D3 receptor antagonists” (priority 2014, dated 2019) can be followed below.

The target of the test is hD2 recombinant receptor (human dopamine receptor type 2, long variant, CHO-Gα16-hD2L cells) (Homo sapiens (Human), UniProt P14416). Conditions: functional pKi; antagonism of dopamine EC80 calcium response (FLIPR).

Some results are limits rather than exact numbers.

Consider `Cn1c(OCCCN2CC[C@]3(C[C@H]3c3ccc(C(F)(F)F)cc3)C2)nnc1C1CCOCC1` (single isomer, unassigned) [Example 304, (1S,3S or 1R,3R)-5-(3-{[4-methyl-5-(oxan-4-yl)-4H-1,2,4-triazol-3-yl]oxy}propyl)-1-[4-(trifluoromethyl)phenyl]-5-azaspiro[2.4]heptane], for which the “D2 fpKi” value was less than 5. Turning to `Cc1ncoc1-c1nnc(SCCCN2CCC[C@]3(C[C@H]3c3ccc(C(F)(F)F)cc3)C2)n1C` (single isomer, unassigned) [Example 312, (1S,3R or 1R,3S)-5-(3-{[4-methyl-5-(4-methyl-1,3-oxazol-5-yl)-4H-1,2,4-triazol-3-yl]sulfanyl}propyl)-1-[4-(trifluoromethyl)phenyl]-5-azaspiro[2.5]octane], the “D2 fpKi” value was found to be 8.26. For `Cc1ncoc1-c1nnc(SCCCN2CCC[C@@]3(C[C@H]3c3ccc(C(F)(F)F)cc3)C2)n1C` (single isomer, unassigned) [Example 314, (1S,3S or 1R,3R)-5-(3-{[4-methyl-5-(4-methyl-1,3-oxazol-5-yl)-4H-1,2,4-triazol-3-yl]sulfanyl}propyl)-1-[4-(trifluoromethyl)phenyl]-5-azaspiro[2.5]octane], the “D2 fpKi” value is less than 5.

Turning to `Cc1ncoc1-c1nnc(SCCCN2CC[C@]3(CC[C@H]3c3ccccc3)C2)n1C` (single isomer, unassigned) [Example 318, (1R,4S or 1S,4R or 1S,4S or 1R,4R)-6-(3-{[4-methyl-5-(4-methyl-1,3-oxazol-5-yl)-4H-1,2,4-triazol-3-yl]sulfanyl}propyl)-1-phenyl-6-azaspiro[3.4]octane], the “D2 fpKi” value is reported as less than 5. Take `Cn1c(OCCCN2CC[C@@]3(C[C@@H]3c3ccc(C(F)(F)F)cc3)C2)nnc1C1CCOCC1` (single isomer, unassigned) [Example 305, (1R,3R or 1S,3S)-5-(3-{[4-methyl-5-(oxan-4-yl)-4H-1,2,4-triazol-3-yl]oxy}-propyl)-1-[4-(trifluoromethyl)phenyl]-5-azaspiro[2.4]heptane]: the “D2 fpKi” value is on record as less than 5.
